“Also recorded” adds a separate entry of the source.
Assays:
OATP1B3 = target: T1, OATP1B3 (Homo sapiens, UniProt Q9NPD5); assay: Uptake transporter inhibition assay, OATP1B3 (CCK-8); settings: for Maximum % inhibition: OATP1B3, HEK293 cells, CCK-8 (1 μM), NIO: no inhibition observed
T1 sequence (Q9NPD5 1-702): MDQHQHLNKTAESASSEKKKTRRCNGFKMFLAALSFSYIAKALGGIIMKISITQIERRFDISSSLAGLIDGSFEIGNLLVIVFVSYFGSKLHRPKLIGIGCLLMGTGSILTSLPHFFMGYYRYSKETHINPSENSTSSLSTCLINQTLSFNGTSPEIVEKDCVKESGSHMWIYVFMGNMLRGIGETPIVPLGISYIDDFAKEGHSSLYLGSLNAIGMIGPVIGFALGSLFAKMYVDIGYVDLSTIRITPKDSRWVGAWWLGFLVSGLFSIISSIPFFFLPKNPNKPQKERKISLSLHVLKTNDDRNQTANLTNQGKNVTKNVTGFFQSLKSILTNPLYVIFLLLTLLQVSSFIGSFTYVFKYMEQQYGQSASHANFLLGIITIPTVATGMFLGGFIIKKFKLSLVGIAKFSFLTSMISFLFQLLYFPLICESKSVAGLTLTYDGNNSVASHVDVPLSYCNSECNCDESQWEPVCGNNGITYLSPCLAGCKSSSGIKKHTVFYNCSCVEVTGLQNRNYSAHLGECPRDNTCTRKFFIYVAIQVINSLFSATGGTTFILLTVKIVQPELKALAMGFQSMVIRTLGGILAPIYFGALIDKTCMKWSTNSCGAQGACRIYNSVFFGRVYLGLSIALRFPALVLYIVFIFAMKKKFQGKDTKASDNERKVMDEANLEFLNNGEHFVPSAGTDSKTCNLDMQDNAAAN
Procedure: Uptake experiments were performed using HEK293 cells stably expressing the respective uptake transporters. The assays were conducted according to the actual SOLVO uptake transporter assay protocols (PR-ASY-UPT-General Protocol for Uptake Transporter Inhibition Assays).
Cells were cultured at 37° C. in a humidified atmosphere containing 5% CO2 and were plated onto standard 96-well tissue culture plates.
Before the experiment, the medium was removed, and the cells were washed twice with 100 μL of pre-warmed (37° C.) assay buffer listed in Table 15. The cells were pre-incubated at 37° C. for 30 minutes in assay buffer containing the test article at appropriate concentrations (Table 16), appropriate solvents for solvent controls and the reference inhibitor for reference inhibitor wells. After the pre-incubation step solutions were removed. Uptake experiments were performed at 37° C. in 50 μL of assay buffer containing the probe substrate and the test article or solvent and controls.
After the experiment, cells were washed twice with 100 μL of appropriate cold buffer and lysed with 150 μL scintillation cocktail. Radiolabeled probe substrate transport was determined by liquid scintillation counting.
Uptake of the probe substrate in control cells provided background activity values for all data points.

Wistar rats = assay: Five Choice Serial Reaction Time Task, variable intertrial interval (vITI), acute; assay type: in vivo, Wistar rat; settings: for % hit rate: Compound I-4 0.1-1.0 mg/kg ip, Compound I-19 0.03-1.0 mg/kg ip; for % correct / Magazine Head Entries / Omissions / number of trials completed / perseverative responses / premature responses / response latencies (correct, incorrect) / reward latencies / timeout responses: same doses
Procedure: Animals were trained in eight automated 5C-SRTT operant chambers (Med Associates, St. Albans, VT, USA), controlled by MedPC software (Med Associates). Briefly, each operant chamber was equipped with 5 apertures containing a photocell beam to detect nose pokes and a lamp (2.8 W) that could be illuminated randomly at varying durations. Food pellets (45 mg chow pellet, BioServ, Frenchtown, NJ, USA) were delivered automatically to a magazine, located on the opposite wall to the nose pokes, that was also equipped with a light that turned on to indicate that a pellet had been dispensed. The house-light remained on for the entire session unless an error or omission occurred. Training sessions began with the delivery of a food reward and retrieval triggered the first trial. […] Training began with the stimulus duration set at 10 sec, a limited hold period of 5 sec and an ITI of 5 sec. […] Sessions ended when 40 minutes had lapsed or 100 trials had been completed.
Upon meeting the performance criteria, animals were assessed in the vSD version of the task where the following stimulus durations were presented in a pseudorandom manner: 0.3, 0.6 and 0.9 sec. Later, subjects were assessed in the vITI version where 2.5, 5.0 and 10.0 sec ITIs were employed in a pseudorandom manner. Performance parameters measured were: % hit ((# correct/(# correct+# incorrect including omissions))×100); % correct ((# correct/(# correct+# incorrect excluding omissions))×100); premature responses (# of nose-pokes into any aperture after trial initiation but before onset of the stimulus light); timeout responses (# of nose pokes into any aperture during a timeout period), perseverative responses (# of nose pokes occurring after the correct response had been made but before reward collection); # of food magazine head entries, omissions and total trials completed. The latency to correct response (time taken from the onset of the nose poke light stimulus to making the correct nose poke response), latency to incorrect response (time taken from onset of nose poke light stimulus to making the incorrect nose poke response), and latency to reward (i.e., the magazine latency, time taken from making a correct nose poke response to retrieving the reward from the magazine) was also recorded.
Drug doses and vehicle were administered in a pseudorandom fashion. Drug or vehicle sessions were performed 1-2 times per week with maintenance training (behavioral testing without drug or vehicle injections) interspersed.
All data were collated and entered into Microsoft Excel spreadsheets. The data were subsequently imported into StatView 5.0 for statistical analyses. One and two factor analysis of variance (ANOVA) tests were used with repeated measures when indicated, followed by Fisher LSD or Student Newman Keuls as post-hoc tests. All results were expressed as the mean (±S.E.M.). Differences between means from experimental groups were considered significant at the p<0.05 level. The statistical F values and degrees of freedom associated with the two factor ANOVA analyses are provided in the text of this report. Please refer to the statistical reports in the appendices for the values associated with one factor ANOVAs for the overall means and overall total values.

in vitro = settings: for % Remaining / Aa/Ai Mean (N = 2) / T1/2: 2.0 μM; for T1/2: 60 min incubation
[1] = 2-concentration assay, up to 100 μM (Compound A up to 30 μM)
[2] = 0.14 μM nominal, 0.09 μM NSB corrected, follow-up assay
[3] = 1.24 μM nominal, 0.86 μM NSB corrected, follow-up assay
[4] = 10.00 μM nominal, 6.60 μM NSB corrected
[5] = 11.11 μM nominal, 7.89 μM NSB corrected, follow-up assay
[6] = 33.33 μM nominal, 24.33 μM NSB corrected, follow-up assay
[7] = 100.00 μM nominal, 77.00 μM NSB corrected
[8] = 100.00 μM nominal, 100.00 μM NSB corrected, follow-up assay
[9] = […] nominal, 1.89 μM NSB corrected, follow-up assay

## OC1(c2ccc(Cl)cc2)c2ccccc2C2=NCCN21 (centres unmarked) [Compound A, 5-(4-chlorophenyl)-2,3-dihydroimidazo[1,2-b]isoindol-5-ol, reference compound]
OATP1B3; 3.00 μM nominal, CCK-8, Table 120
  Relative transporter specific accumulation: 92.81 ± 3.95 % of control
OATP1B3; 30.00 μM nominal, CCK-8, Table 120
  Relative transporter specific accumulation: 90.63 ± 4.66 % of control
OATP1B3; [1]
  maximum inhibition of OATP1B3-mediated CCK-8 accumulation: did not inhibited; also recorded: not an in vitro inhibitor
OATP1B3
  Maximum % inhibition: NIO
OATP1B3; human
  inhibition at 3 μM: 7%
  inhibition at 30 μM: 9%

## COCCOC1(c2ccc(Cl)cc2)c2ccccc2C2=NCCN21 (centres unmarked) [Compound I-4]
Wistar rats
  % hit rate: modest decrease in the % hit rate
  % correct: no statistically significant dose-related effects
  Magazine Head Entries: decreases in the number of premature responses, timeout responses, and magazine head entries
  Omissions: increase in the number of omissions
  number of trials completed: the number of trials completed was not affected
  perseverative responses: no statistically significant effects on perseverative responses
  premature responses: decrease in the number of premature responses
  response latencies (correct, incorrect): increases in the response and reward latencies
  reward latencies: increases in the response and reward latencies
  timeout responses: decreases in the number of premature responses, timeout responses, and magazine head entries
In vitro; 0 min
  Compound A formed (Aa/Ai): 0.57
  % Remaining: 100%
  Aa/Ai Mean (N = 2): 3.25
In vitro; 5 min
  % Remaining: 95.0%
  Aa/Ai Mean (N = 2): 3.08
  Compound A formed (Aa/Ai): 0.66
In vitro; 15 min
  % Remaining: 99.6%
  Aa/Ai Mean (N = 2): 3.23
  Compound A formed (Aa/Ai): 0.58
In vitro; 30 min
  % Remaining: 90.8%
  Aa/Ai Mean (N = 2): 2.95
  Compound A formed (Aa/Ai): 0.52
In vitro; 60 min
  % Remaining: 83.6%
  Aa/Ai Mean (N = 2): 2.72
  Compound A formed (Aa/Ai): 0.42
In vitro
  T1/2: >3.12 h

## Clc1ccc(C2(OCC3OCCO3)c3ccccc3C3=NCCN32)cc1 (centres unmarked) [Compound I-19]
Wistar rats
  % hit rate: modest decrease in the % hit rate
  % correct: no statistically significant dose-related effects
  Magazine Head Entries: decrease in the number of premature responses, timeout responses, and magazine head entries
  Omissions: increase in the number of omissions
  number of trials completed: not significantly affected
  perseverative responses: no statistically significant effects on perseverative responses
  premature responses: decreases in the number of premature responses
  response latencies (correct, incorrect): modest increases in the response latencies
  reward latencies: not significantly affected
  timeout responses: decrease in the number of premature responses, timeout responses, and magazine head entries
In vitro; 0 min
  Compound A formed (Aa/Ai): 0.60
  % Remaining: 100%
  Aa/Ai Mean (N = 2): 1.62
In vitro; 5 min
  % Remaining: 99.1%
  Aa/Ai Mean (N = 2): 1.61
  Compound A formed (Aa/Ai): 0.59
In vitro; 15 min
  % Remaining: 98.2%
  Aa/Ai Mean (N = 2): 1.59
  Compound A formed (Aa/Ai): 0.57
In vitro; 30 min
  % Remaining: 92.8%
  Aa/Ai Mean (N = 2): 1.50
  Compound A formed (Aa/Ai): 0.52
In vitro; 60 min
  % Remaining: 79.6%
  Aa/Ai Mean (N = 2): 1.29
  Compound A formed (Aa/Ai): 0.47
In vitro
  T1/2: 2.97 h
OATP1B3; [2]
  Relative inhibition: 1%
  Relative transporter specific accumulation: 99.35 ± 3.01 % of control
  Transporter specific accumulation: 1,167.00 ± 32.35 cpm
OATP1B3; [3]
  Relative inhibition: 8%
  Relative transporter specific accumulation: 91.63 ± 3.53 % of control
  Transporter specific accumulation: 1,076.33 ± 39.37 cpm
OATP1B3; [4]
  Relative inhibition: 7%
  Relative transporter specific accumulation: 93.13 ± 0.99 % of control
  Transporter specific accumulation: 1,953.33 ± 8.60 cpm
OATP1B3; [5]
  Relative inhibition: 20%
  Relative transporter specific accumulation: 80.11 ± 4.16 % of control
  Transporter specific accumulation: 941.00 ± 47.56 cpm
OATP1B3; [6]
  Relative inhibition: 23%
  Relative transporter specific accumulation: 77.21 ± 2.52 % of control
  Transporter specific accumulation: 907.00 ± 27.52 cpm
OATP1B3; [7]
  Relative inhibition: 50%
  Relative transporter specific accumulation: 50.40 ± 2.21 % of control
  Transporter specific accumulation: 1,057.00 ± 45.14 cpm
OATP1B3; [8]
  Relative inhibition: 61%
  Relative transporter specific accumulation: 39.13 ± 2.03 % of control
  Transporter specific accumulation: 459.67 ± 23.17 cpm
OATP1B3; [1]
  maximum inhibition of OATP1B3-mediated CCK-8 accumulation: 50%
OATP1B3
  Maximum % inhibition: 61%
OATP1B3; [9]
  Relative inhibition: 4%
  Relative transporter specific accumulation: 96.17 ± 1.42 % of control
  Transporter specific accumulation: 1,129.67 ± 9.53 cpm
OATP1B3; follow-up assay
  maximum inhibition of OATP1B3-mediated CCK-8 accumulation: 61%
OATP1B3; follow-up assay, NSB-corrected concentrations
  IC50: 82.8 µM

Reference: US20250108038A1 (priority 2023, published 2025)
